Test results from patent US11851445B2, “Compounds and uses thereof” (Foghorn Therapeutics Inc., priority 2020, dated 2023).
Entries after “also recorded” stand apart in the source; their conditions may differ.

Columns and labels:
[1] = test system: synovial sarcoma cell lines (SYO1, HS-SY-II, and ASKA); test: Growth of synovial sarcoma cell lines, crystal violet, day 14 (Example 3); type: cell-based
Protocol: (§1) Procedure: Cells were seeded into 6-well or 12-well plates and were treated daily with a BRD9 degrader (Compound 1), a bromo-domain BRD9 binder (Compound 2), E3 ligase binder (lenalidomide), DMSO, or staurosporin (positive control for cell killing), at indicated concentrations. The number of cells was optimized for each cell line. Growth media was refreshed every 5 days. By day 14, medium was removed, cells were washed with PBS, and stained using 500 μL of 0.005% (w/v) crystal violet solution in 25% (v/v) methanol for at least 1 hour at room temperature. Subsequently plates were scanned on an Odyssey CLx Imaging system.

[2] = test system: non-synovial control cancer cell lines (293T, A549, G401); test: Growth of non-synovial control cancer cell lines (Example 2); type: cell-based; conditions: FIGS. 4, 5, 6
Protocol: (§2) Cells were treated with DMSO or the BRD9 degrader, Compound 1, at indicated concentrations, and proliferation was monitored from day 7 to day 14 by measuring confluency over time using an IncuCyte live cell analysis system (FIG. 4). Growth medium and compounds were refreshed every 3-4 days.
(§3) Cells were seeded into 12-well plates and treated with DMSO, 1 μM BRD9 inhibitor, Compound 2 (also known as BI-7273, see Martin et al, J Med Chem. 59(10):4462-4475 (2016); see structure of compound 2 below), or 1 μM BRD9 degrader, Compound 1.
(§4) The number of cells was optimized for each cell line. Growth medium and compounds were refreshed every 3-5 days. SYO1, Yamato, A549, 293T and HS-SY-II cells were fixed and stained at day 11. ASKA cells were fixed and stained at day 23. Staining was done by incubation with crystal violet solution (0.5 g Crystal Violet, 27 ml 37% Formaldehyde, 100 mL 10×PBS, 10 mL Methanol, 863 dH20 to 1 L) for 30 min followed by 3× washes with water and drying the plates for at least 24 h at room temperature. Subsequently plates were scanned on an Odyssey CLx Imaging system (FIG. 5).
(§5) Cells were seeded into 96-well ultra-low cluster plate (Costar, #7007) in 200 μL complete media and treated at day 2 with DMSO, Staurosporin, or BRD9 degrader, Compound 1, at indicated doses (FIG. 2C). Media and compounds were changed every 5 d and cell colonies were imaged at day 14.

[3] = test system: non-synovial control cancer cell lines (RD, HCT116, and Calu6); test: Growth of non-synovial control cancer cell lines, crystal violet, day 14 (Example 3); type: cell-based; conditions: FIG. 8
Protocol: as §1

SYO1 cells [4] = test: Cell cycle analysis, Click-iT Plus EdU flow cytometry; type: cell-based, human; conditions: 200 nM or 1 μM, 8 or 13 days; compared to DMSO and lenalidomide
Protocol: (§6) Procedure: SYO1 cells were treated for 8 or 13 days with DMSO, a BRD9 degrader (Compound 1) at 200 nM or 1 μM, or an E3 ligase binder (lenalidomide) at 200 nM. Compounds were refreshed every 5 days. Cell cycle analysis was performed using the Click-iT™ Plus EdU Flow Cytometry Assay (Invitrogen). The apoptosis assay was performed using the Annexin V-FITC Apoptosis Detection Kit (Sigma A9210). Assays were performed according to the manufacturer's protocol.

SYO1 cells [5] = test: Apoptosis assay, Annexin V-FITC; type: cell-based, human; conditions: 8 days; compared to DMSO controls
Protocol: as §6

[6] = test system: synovial sarcoma cell lines (SYO1, Yamato, HS-SY-II, and ASKA); test: Growth of synovial sarcoma cell lines (Example 2: confluency, crystal violet, colonies); type: cell-based; conditions: FIGS. 4, 5, 6
Protocol: as §2, §3, §4, §5

[7] = test system: SYO-1 human biphasic synovial sarcoma tumor; test: SYO-1 xenograft tumor growth in NOD SCID mice; type: in vivo; conditions: 1 mg/kg, i.p., daily, 3 weeks; FIG. 14
Protocol: Method: NOD SCID mice (Beijing Anikeeper Biotech, Beijing) were inoculated subcutaneously on the right flank with the single cell suspension of SYO-1 human biphasic synovial sarcoma tumor cells (5×106) in 100 μL Dulbecco's Modified Eagle Medium (DMEM) with 10% fetal bovine serum (FBS). The mice were randomized into either control group [10% dimethyl sulfoxide (DMSO), 40% polyethylene glycol (PEG400) and 50% water], or treatment group D1 when the mean tumor size reached about 117 mm^3. Mice were dosed daily through intraperitoneal (i.p.) route over the course of 3 weeks. All dose volumes were adjusted by body weights in terms of mg/kg.

BRD9 = molecular target: T1, BRD9 (Homo sapiens, UniProt Q9H8M2); test: BRD9 degradation in synovial sarcoma tumor in vivo, western blot (Example 12); design: degradation endogenous BRD9 protein in two synovial sarcoma cell lines; endogenous in cells; host or cells: SYO1 (SYO-1) synovial sarcoma cells; conditions: 1 mg/kg, i.p., 4 weeks; tumors 8, 72 and 168 hours post last dose; FIG. 15
T1 sequence (Q9H8M2 1-597): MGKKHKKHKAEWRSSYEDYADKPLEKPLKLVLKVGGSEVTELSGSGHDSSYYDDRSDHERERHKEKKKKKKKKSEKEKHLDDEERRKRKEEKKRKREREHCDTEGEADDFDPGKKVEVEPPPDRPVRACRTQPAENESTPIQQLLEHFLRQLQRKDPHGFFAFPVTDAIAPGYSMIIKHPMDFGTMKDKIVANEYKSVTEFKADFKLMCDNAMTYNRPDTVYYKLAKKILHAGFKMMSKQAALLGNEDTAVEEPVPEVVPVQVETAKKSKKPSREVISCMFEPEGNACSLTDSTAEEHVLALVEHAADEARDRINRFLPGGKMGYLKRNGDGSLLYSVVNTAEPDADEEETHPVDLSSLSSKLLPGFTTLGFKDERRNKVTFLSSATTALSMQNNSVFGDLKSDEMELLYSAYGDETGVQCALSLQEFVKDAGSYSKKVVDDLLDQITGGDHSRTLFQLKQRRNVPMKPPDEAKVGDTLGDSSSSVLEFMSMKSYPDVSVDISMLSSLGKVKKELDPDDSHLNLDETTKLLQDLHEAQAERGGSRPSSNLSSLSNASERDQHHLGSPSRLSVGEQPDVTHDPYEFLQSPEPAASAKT
Protocol: Method: Mice were treated with D1, 1 mg/kg, i.p. for 4 weeks. Mice were then euthanized, and tumors were collected at 8 hours, 72 hours, and 168 hours post last dose. Tumors were lysed with 1× RIPA lysis buffer (Boston BioProducts, BP-115D) with protease and phosphatase protein inhibitor (Roche Applied Science #04906837001 & 05892791001). Equal amounts of lysate (30 μg) were loaded in 4-12% Bis-Tris Midi Protein Gels in 1×MOPS buffer; samples ran at 120 V for 120 minutes. Protein was transferred to membrane with TransBlot at 250 mA for 150 minutes, and then membranes were blocked with Odyssey blocking buffer for 1 hour at room temperature. Membranes were hybridized overnight in cold room with primary antibodies. Images acquired using Li-COR imaging system (Li-COR Biotechnology, Lincoln, Nebr.).

SMILES: COc1cc(-c2cn(C)c(=O)c3cnccc23)cc(OC)c1CN(C)CC(=O)NCCOCCOCCNc1cccc2c1C(=O)N(C1CCC(=O)NC1=O)C2=O (stereo not drawn) [Compound 1, dBRD9]
- growth of the cells ([1]; SYO1, HS-SY-II, ASKA, day 14, FIG. 7): inhibition of the growth of the cells
- growth inhibition compared with the other treatments ([1]; all synovial cell lines): most significant growth inhibition
- growth of the cells [2]: does not result in inhibition of the growth
- growth of the cells [3]: did not result in inhibition of the growth
- numbers of cells in the S-phase of the cell cycle (SYO1 cells [4]): reduced numbers of cells in the S-phase
- numbers of early- and late-apoptotic cells (SYO1 cells [5]): increased numbers of early- and late-apoptotic cells
- growth of the cells [6]: inhibition of the growth of the cells

SMILES: COc1cc(-c2cn(C)c(=O)c3cnc(N4CCC4)cc23)cc(OC)c1CN1CCC(CN2CCC3(CC2)CN(c2ccc4c(c2)C(=O)N(C2CCC(=O)NC2=O)C4)C3)CC1 (racemic) [Compound D1, 3-[6-(7-[[1-([4-[6-(azetidin-1-yl)-2-methyl-1-oxo-2,7-naphthyridin-4-yl]-2,6-dimethoxyphenyl]methyl)piperidin-4-yl]methyl]-2,7-diazaspiro[3.5]nonan-2-yl)-1-oxo-3H-isoindol-2-yl]piperidine-2,6-dione]
- tumor growth [7]: tumor growth inhibition
- BRD9 level in tumor (BRD9): complete degradation of BRD9 target up to 168 hours after dose; also recorded: BRD9 inhibition
